IC50 data for 21 molecules are collected here from patent US12447153B2, “HER2 mutation inhibitors” (Array BioPharma Inc., priority 2021, dated 2025).

Test [1] has as its target EGFR (Homo sapiens (Human), UniProt P00533). Put plainly: ErbB Enzyme Assay (HTRF KinEASE-TK), Assay 3. The class given is biochemical. On the procedure:
The kinases were incubated with 250 nM TK-substrate biotin (CisBio, part of cat #62TKOPEC) at 1 mM ATP along with test compounds in a buffer consisting of 25 mM HEPES, pH 7.4, 10 mM MgCl2, 0.01% Triton X-100, and 2% DMSO in a volume of 8 μL. […] After 30-minute incubation at 22° C., the reaction was quenched by adding 8 μL of quench solution containing 62.5 nM Sa-XL665 and 0.25×TK-Ab-Cryptate in HTRF detection buffer (all from CisBio, part of cat #62TKOPEC). […] A 4-parameter logistic curve was fit to the POC values as a function of the concentration of compound, and the IC50 value was the point where the best-fit curve crossed 50 POC.

The target of test [2] is ErbB2 WT (Homo sapiens (Human), UniProt P04626). The test can be described thus: ErbB Enzyme Assay (HTRF KinEASE-TK), Assay 2. It counts as biochemical. How it is done: The kinases were incubated with 250 nM TK-substrate biotin (CisBio, part of cat #62TKOPEC) at 1 mM ATP along with test compounds in a buffer consisting of 25 mM HEPES, pH 7.4, 10 mM MgCl2, 0.01% Triton X-100, and 2% DMSO in a volume of 8 μL. […] After 30-minute incubation at 22° C., the reaction was quenched by adding 8 μL of quench solution containing 62.5 nM Sa-XL665 and 0.25×TK-Ab-Cryptate in HTRF detection buffer (all from CisBio, part of cat #62TKOPEC).

Test [3] addresses EGFR wild type (EGFR WT) (Homo sapiens (Human), UniProt P00533). Put plainly: Cellular Phosphorylation Assay, Assay 5 (EGF-stimulated EGFR phosphorylation, NIH 3T3 cells). The class given is cell-based. How it is done:
(§1) NIH 3T3 cells were engineered to express ErbB2 with Exon 20 YVMA insertion (HER2-YVMA (SEQ ID NO: 2); Assay 4) or EGFR wild type (EGFR WT; Assay 5) with constructs obtained from GenScript and grown in DMEM supplemented with 10% fetal bovine serum and 15 μg/ml blasticidin. […] Serially diluted compounds were added to the plates for 1 hour at 37° C./5% CO2. EGFR WT cells were stimulated with 100 ng/ml rEGF for an additional 10 minutes at 37° C./5% CO2.
(§2) After compound incubation, medium was removed from the cells, which were then fixed in 3.7% formaldehyde in PBS at room temperature for 20 minutes. Following a wash with PBS, cells were permeabilized with 100% methanol at room temperature for 10 minutes. Cells were then washed with PBS/0.05% Tween-20 and blocked with Odyssey blocking buffer (LI-COR Biosciences) for at least 1 hour at room temperature. Antibodies to phosphorylated ErbB2 (Y1196, Cell Signaling #6942) or phosphorylated EGFR (Y1068, Cell Signaling #3777) and GAPDH (Millipore #MAB374) were added to the cells in blocking buffer containing 0.05% azide and incubated overnight at 4° C. After washing with PBS/0.05% Tween-20, the cells were incubated with fluorescently labeled secondary anti-rabbit antibody (LiCOR, IRDye 800CW #926-32211) and anti-mouse antibody (Molecular Probes, Alexa Fluor 680 #A21058) for 1 hour at room temperature in the dark. Cells were then washed and analyzed for fluorescence at both wavelengths using the Odyssey Infrared Imaging System (LI-COR Biosciences). Phosphorylated ErbB2 and EGFR signal was normalized to GAPDH signal to generate curves and calculate IC50 values.

Test [4] addresses ErbB2 with Exon 20 YVMA insertion (HER2-YVMA) (Homo sapiens (Human), UniProt P04626, INS775YVMA). The test can be described thus: Cellular Phosphorylation Assay, Assay 4 (constitutive ErbB2 phosphorylation, NIH 3T3 cells). It counts as cell-based. On the procedure: as §1, §2
[5] abbreviates: EGF-stimulated EGFR WT phosphorylation.
Where [6] appears, read: cellular EGFR WT phosphorylation, EGF-stimulated.
Setting [7] is: cellular ErbB2 YVMA phosphorylation.

Where only a bound is given, the exact number is not on record here.

EGFR wild type (EGFR WT), sequence (P00533 25-1210): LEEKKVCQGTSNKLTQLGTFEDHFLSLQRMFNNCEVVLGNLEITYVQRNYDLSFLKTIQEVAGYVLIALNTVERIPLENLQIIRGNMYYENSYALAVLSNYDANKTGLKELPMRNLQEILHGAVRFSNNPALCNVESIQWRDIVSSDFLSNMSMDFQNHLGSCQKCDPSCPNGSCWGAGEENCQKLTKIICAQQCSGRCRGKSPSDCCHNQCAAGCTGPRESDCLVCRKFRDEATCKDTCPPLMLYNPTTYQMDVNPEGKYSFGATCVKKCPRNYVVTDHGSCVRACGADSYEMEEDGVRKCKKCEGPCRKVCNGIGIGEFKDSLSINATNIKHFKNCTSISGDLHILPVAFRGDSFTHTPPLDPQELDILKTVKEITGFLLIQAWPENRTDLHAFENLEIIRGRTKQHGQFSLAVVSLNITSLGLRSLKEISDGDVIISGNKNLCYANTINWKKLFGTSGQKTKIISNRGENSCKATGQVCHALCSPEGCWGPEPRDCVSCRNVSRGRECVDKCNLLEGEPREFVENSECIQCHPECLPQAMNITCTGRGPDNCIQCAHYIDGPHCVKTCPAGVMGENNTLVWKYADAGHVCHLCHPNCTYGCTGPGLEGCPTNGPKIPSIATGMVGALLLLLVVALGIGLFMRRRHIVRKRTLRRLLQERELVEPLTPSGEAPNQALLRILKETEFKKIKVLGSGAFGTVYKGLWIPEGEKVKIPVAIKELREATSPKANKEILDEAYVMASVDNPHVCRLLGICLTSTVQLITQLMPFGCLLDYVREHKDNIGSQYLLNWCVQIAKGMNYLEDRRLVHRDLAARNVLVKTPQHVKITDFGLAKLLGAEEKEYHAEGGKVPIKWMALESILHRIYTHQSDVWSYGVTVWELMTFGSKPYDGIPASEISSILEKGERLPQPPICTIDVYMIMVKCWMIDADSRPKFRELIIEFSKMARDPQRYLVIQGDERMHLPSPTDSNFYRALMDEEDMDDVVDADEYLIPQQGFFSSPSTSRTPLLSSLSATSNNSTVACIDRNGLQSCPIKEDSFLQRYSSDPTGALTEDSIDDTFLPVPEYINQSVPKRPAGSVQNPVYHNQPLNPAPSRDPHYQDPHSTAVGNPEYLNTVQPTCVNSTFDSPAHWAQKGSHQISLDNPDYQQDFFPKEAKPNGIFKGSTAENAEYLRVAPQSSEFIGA
EGFR, sequence (P00533 25-1210): as above
ErbB2 with Exon 20 YVMA insertion (HER2-YVMA), sequence (P04626 other isoform, or with tags, fused parts or gaps ins YVMA behind 775): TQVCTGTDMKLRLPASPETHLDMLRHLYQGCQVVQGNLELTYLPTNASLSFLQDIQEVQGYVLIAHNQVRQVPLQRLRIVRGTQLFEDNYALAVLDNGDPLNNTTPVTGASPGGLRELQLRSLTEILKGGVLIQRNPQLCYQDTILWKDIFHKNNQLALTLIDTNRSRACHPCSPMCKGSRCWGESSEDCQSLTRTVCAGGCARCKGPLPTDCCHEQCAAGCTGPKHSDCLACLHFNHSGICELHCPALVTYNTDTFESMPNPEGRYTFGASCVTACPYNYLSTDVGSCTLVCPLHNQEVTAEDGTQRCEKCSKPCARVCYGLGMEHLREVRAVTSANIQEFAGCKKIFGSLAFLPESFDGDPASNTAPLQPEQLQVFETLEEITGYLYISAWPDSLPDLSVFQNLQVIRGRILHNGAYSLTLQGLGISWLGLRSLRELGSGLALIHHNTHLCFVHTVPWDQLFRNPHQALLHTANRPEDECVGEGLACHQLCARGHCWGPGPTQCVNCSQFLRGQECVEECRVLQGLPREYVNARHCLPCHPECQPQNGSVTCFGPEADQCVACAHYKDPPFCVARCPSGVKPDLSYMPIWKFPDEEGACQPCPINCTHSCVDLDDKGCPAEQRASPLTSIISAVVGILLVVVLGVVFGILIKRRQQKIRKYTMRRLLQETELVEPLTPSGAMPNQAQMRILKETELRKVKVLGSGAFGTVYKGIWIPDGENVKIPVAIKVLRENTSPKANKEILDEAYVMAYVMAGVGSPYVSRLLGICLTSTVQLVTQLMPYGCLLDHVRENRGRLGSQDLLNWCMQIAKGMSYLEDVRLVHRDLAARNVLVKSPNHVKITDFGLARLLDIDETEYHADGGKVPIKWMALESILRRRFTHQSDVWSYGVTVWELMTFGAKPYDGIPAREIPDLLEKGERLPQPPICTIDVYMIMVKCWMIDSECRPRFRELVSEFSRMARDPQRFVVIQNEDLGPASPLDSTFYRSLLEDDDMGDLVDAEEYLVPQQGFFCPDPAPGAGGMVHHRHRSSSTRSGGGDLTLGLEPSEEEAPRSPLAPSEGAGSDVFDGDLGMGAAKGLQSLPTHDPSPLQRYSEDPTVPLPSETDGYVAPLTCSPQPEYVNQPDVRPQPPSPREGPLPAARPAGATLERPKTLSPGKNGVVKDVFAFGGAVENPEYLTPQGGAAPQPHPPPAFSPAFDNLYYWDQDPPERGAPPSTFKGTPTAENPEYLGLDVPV
ErbB2 WT, sequence (P04626 23-1255): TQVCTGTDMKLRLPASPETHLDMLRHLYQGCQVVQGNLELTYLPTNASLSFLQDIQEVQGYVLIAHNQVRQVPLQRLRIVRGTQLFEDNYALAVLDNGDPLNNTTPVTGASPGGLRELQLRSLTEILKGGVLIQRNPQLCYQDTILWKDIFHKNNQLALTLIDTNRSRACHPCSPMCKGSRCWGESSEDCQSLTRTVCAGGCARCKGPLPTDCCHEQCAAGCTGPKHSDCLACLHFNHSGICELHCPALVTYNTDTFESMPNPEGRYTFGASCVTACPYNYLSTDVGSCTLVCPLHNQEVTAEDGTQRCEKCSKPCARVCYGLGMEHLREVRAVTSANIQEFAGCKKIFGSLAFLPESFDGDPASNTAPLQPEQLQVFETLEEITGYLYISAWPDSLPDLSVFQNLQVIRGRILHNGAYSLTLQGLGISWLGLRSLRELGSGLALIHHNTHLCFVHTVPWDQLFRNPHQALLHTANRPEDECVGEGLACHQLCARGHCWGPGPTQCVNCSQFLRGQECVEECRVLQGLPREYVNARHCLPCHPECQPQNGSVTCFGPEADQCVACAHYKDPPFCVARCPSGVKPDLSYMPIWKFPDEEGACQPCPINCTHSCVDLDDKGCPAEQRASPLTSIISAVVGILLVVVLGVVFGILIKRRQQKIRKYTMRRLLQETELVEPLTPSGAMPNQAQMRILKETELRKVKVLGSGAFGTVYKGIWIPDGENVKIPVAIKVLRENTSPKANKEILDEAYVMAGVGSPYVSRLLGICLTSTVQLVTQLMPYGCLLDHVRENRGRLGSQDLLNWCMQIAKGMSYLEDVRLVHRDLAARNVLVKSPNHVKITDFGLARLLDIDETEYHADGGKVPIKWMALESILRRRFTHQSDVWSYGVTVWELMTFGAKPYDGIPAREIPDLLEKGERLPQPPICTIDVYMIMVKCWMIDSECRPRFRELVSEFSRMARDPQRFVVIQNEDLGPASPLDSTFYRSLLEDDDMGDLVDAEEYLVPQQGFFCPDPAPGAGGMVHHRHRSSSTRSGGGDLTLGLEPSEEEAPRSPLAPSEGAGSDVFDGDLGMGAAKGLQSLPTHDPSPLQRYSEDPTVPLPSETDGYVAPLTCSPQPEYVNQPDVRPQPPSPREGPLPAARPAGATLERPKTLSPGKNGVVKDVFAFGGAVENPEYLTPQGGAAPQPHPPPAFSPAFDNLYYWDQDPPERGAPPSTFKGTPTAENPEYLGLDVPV

In the case of `C=CC(=O)N1CCC(Oc2nc3c(Nc4ccc(Oc5ccc6cn(C)nc6c5)c(Cl)c4F)ncnc3cc2OC)CC1` [Example 156, 1-(4-((4-((3-chloro-2-fluoro-4-((2-methyl-2H-indazol-6-yl)oxy)phenyl)amino)-7-methoxypyrido[3,2-d]pyrimidin-6-yl)oxy)piperidin-1-yl)prop-2-en-1-one], the IC50 is 110 nM in test [1] (EGFR enzyme), 20.3 nM in test [2] (ErbB2 WT enzyme), 215 nM in test [3] (setting [5]) and 19.6 nM in test [4] (ErbB2 YVMA phosphorylation).

Turning to `C=CC(=O)N1CC2CCC(C1)N2c1ccc2ncnc(Nc3ccc(Oc4cnc5c(c4)ncn5C)c(C)c3F)c2n1` [Example 244, 1-(8-(4-((2-fluoro-3-methyl-4-((3-methyl-3H-imidazo[4,5-b]pyridin-6-yl)oxy)phenyl)amino)pyrido[3,2-d]pyrimidin-6-yl)-3,8-diazabicyclo[3.2.1]octan-3-yl)prop-2-en-1-one], the IC50 was 178 nM in test [1] (EGFR enzyme), 46.4 nM in test [2] (ErbB2 WT enzyme), 317 nM in test [3] (setting [5]) and 16.7 nM in test [4] (ErbB2 YVMA phosphorylation).

As to `C=CC(=O)N1C[C@H]2C[C@@H]1CN2c1ccc2ncnc(Nc3cc(C)c(Oc4ccn5ncnc5c4)cc3F)c2n1` [Example 78, 1-((1R,4R)-5-(4-((4-([1,2,4]triazolo[1,5-a]pyridin-7-yloxy)-2-fluoro-5-methylphenyl)amino)pyrido[3,2-d]pyrimidin-6-yl)-2,5-diazabicyclo[2.2.1]heptan-2-yl)prop-2-en-1-one], the IC50 was not below 10000 nM in test [1] (EGFR enzyme), 448 nM in test [2] (ErbB2 WT enzyme), not below 5000 nM in test [3] (setting [5]) and 145 nM in test [4] (ErbB2 YVMA phosphorylation).

In the case of `C=CC(=O)N1CC2CC(C1)N2c1ccc2ncnc(Nc3cc(C)c(Oc4ccn5ncnc5c4)cc3F)c2n1` [Example 336], the IC50 was 5700 nM in test [1] (EGFR enzyme assay), 203 nM in test [2] (ErbB2 WT enzyme assay), 4880 nM in test [3] (setting [6]) and 50.5 nM in test [4] (setting [7]).

On to `C=CC(=O)N1CCC(c2nc3c(Nc4ccc(Oc5ccn6ncnc6c5)c(C)c4F)ncnc3cc2OC)CC1` [Example 155, 1-(4-(4-((4-([1,2,4]triazolo[1,5-a]pyridin-7-yloxy)-2-fluoro-3-methylphenyl)amino)-7-methoxypyrido[3,2-d]pyrimidin-6-yl)piperidin-1-yl)prop-2-en-1-one], for which the IC50 in test [1] (EGFR enzyme) is not below 10000 nM; in test [2] (ErbB2 WT enzyme), 9720 nM; in test [3] (setting [5]) it was not below 5000 nM; in test [4] (ErbB2 YVMA phosphorylation), 3950 nM.

For the molecule `C=CC(=O)N1CCN(c2ccc3ncnc(Nc4ccc(Oc5ccc6scnc6c5)c(C)c4)c3n2)CC1(C)C` [Example 432], the IC50 in test [1] (EGFR enzyme assay) is 210 nM; in test [2] (ErbB2 WT enzyme assay), 37 nM; in test [3] (setting [6]), 281 nM; in test [4] (setting [7]), 15.2 nM.

For `C=CC(=O)N1CCN(c2ccc3ncnc(Nc4cc(C)c(Oc5ccn6ncnc6c5)cc4F)c3n2)CC1` [Example 79, 1-(4-(4-((4-([1,2,4]triazolo[1,5-a]pyridin-7-yloxy)-2-fluoro-5-methylphenyl)amino)pyrido[3,2-d]pyrimidin-6-yl)piperazin-1-yl)prop-2-en-1-one], the IC50 in test [1] (EGFR enzyme) is not below 10000 nM; in test [2] (ErbB2 WT enzyme), 104 nM; in test [3] (setting [5]) it was not below 5000 nM; in test [4] (ErbB2 YVMA phosphorylation) it was 42.6 nM.

With `C=CC(=O)N1C[C@@H]2CC[C@H]1C[C@H]2c1ccc2ncnc(Nc3ccc(Oc4ccn5ncnc5c4)c(C)c3F)c2n1` (single isomer, unassigned) [Example 235], the IC50 in test [1] (EGFR enzyme) was 1020 nM; in test [2] (ErbB2 WT enzyme), 31 nM; in test [3] (setting [5]), not below 5000 nM; in test [4] (ErbB2 YVMA phosphorylation) it was 92.1 nM.

For the molecule `C=CC(=O)N1[C@@H](C)CN(c2ccc3ncnc(Nc4cc(Cl)c(Oc5ccc6c(c5)ncn6C)cc4F)c3n2)C[C@@H]1C` [Example 258], the IC50 is not below 10000 nM in test [1] (EGFR enzyme assay), 10000 nM in test [2] (ErbB2 WT enzyme assay), not below 5000 nM in test [3] (setting [6]) and 99.9 nM in test [4] (setting [7]).

Consider `C=CC(=O)N1CCN(c2ccc3ncnc(Nc4ccc(Oc5ccn6ncnc6c5)c(Cl)c4F)c3n2)C[C@@H]1C(F)F` (racemic) [Example 299], for which the IC50 is 29.4 nM in test [1] (EGFR enzyme assay), 1.2 nM in test [2] (ErbB2 WT enzyme assay), 66.2 nM in test [3] (setting [6]) and 4.1 nM in test [4] (setting [7]).

`C=CC(=O)N1C[C@H]2CC[C@@H]1[C@@H](c1ccc3ncnc(Nc4ccc(Oc5ccn6ncnc6c5)c(C)c4F)c3n1)C2` [Example 398]: the IC50 is 736 nM in test [1] (EGFR enzyme assay), 15.4 nM in test [2] (ErbB2 WT enzyme assay), not below 5000 nM in test [3] (setting [6]) and 74 nM in test [4] (setting [7]).

On to `C=CC(=O)N1[C@@H]2CC[C@H]1[C@H](c1ccc3ncnc(Nc4ccc(Oc5ccn6ncnc6c5)c(C)c4)c3n1)C2` (single isomer, unassigned) [Example 233], for which the IC50 was 4880 nM in test [1] (EGFR enzyme), 121 nM in test [2] (ErbB2 WT enzyme), not below 5000 nM in test [3] (setting [5]) and 83.8 nM in test [4] (ErbB2 YVMA phosphorylation).

For `C=CC(=O)N1CCN(c2ccc3ncnc(Nc4ccc(Oc5ccn6ncnc6c5)c(Cl)c4F)c3n2)C[C@@H]1COC` [Example 348], the IC50 in test [1] (EGFR enzyme assay) was determined as 414 nM; in test [2] (ErbB2 WT enzyme assay) it was 12.1 nM; in test [3] (setting [6]), 348 nM; in test [4] (setting [7]), 8.2 nM.

As for `C=CC(=O)N1CC[C@H](c2ccc3ncnc(Nc4ccc(Oc5ccn6ncnc6c5)c(C)c4F)c3n2)CC1(C)C` (racemic) [Example 314], the IC50 in test [1] (EGFR enzyme assay) was 5550 nM; in test [2] (ErbB2 WT enzyme assay), 59.4 nM; in test [3] (setting [6]), not below 5000 nM; in test [4] (setting [7]) it was 124 nM.

Turning to `C=CC(=O)N1CCC(Sc2ccc3ncnc(Nc4ccc(Oc5ccn6ncnc6c5)c(Cl)c4F)c3n2)CC1` [Example 62, 1-(4-((4-((4-([1,2,4]triazolo[1,5-a]pyridin-7-yloxy)-3-chloro-2-fluorophenyl)amino)pyrido[3,2-d]pyrimidin-6-yl)thio)piperidin-1-yl)prop-2-en-1-one], the IC50 was 333 nM in test [1] (EGFR enzyme), 15.3 nM in test [2] (ErbB2 WT enzyme), 639 nM in test [3] (setting [5]) and 28.1 nM in test [4] (ErbB2 YVMA phosphorylation).

With `C=C(C)C(=O)N1CCN(c2ccc3ncnc(Nc4ccc(Oc5ccn6ncnc6c5)c(C)c4F)c3n2)CC1` [Example 364], the IC50 in test [1] (EGFR enzyme assay) is not below 10000 nM; in test [2] (ErbB2 WT enzyme assay) it was 127 nM; in test [3] (setting [6]) it was not below 5000 nM; in test [4] (setting [7]), 556 nM.

With `C=CC(=O)N1C[C@@H]2C[C@H]1C[C@H]2c1ccc2ncnc(Nc3cc(C)c(Oc4ccn5ncnc5c4)cc3F)c2n1` [Example 373], the IC50 is 1580 nM in test [1] (EGFR enzyme assay), 55.5 nM in test [2] (ErbB2 WT enzyme assay), 3360 nM in test [3] (setting [6]) and 44 nM in test [4] (setting [7]).

Consider `C=CC(=O)N1CCN(c2ccc3ncnc(Nc4cc(F)c(Oc5ccn6ncnc6c5)cc4F)c3n2)CC1(C)C` [Example 453], for which the IC50 in test [1] (EGFR enzyme assay) is not below 10000 nM; in test [2] (ErbB2 WT enzyme assay) it was 147 nM; in test [3] (setting [6]) it was not below 5000 nM; in test [4] (setting [7]) it was 56.3 nM.

On to `C=CC(=O)N1CCN(c2ccc3ncnc(Nc4ccc(Oc5ccn6ncnc6c5)c(C)c4F)c3n2)C[C@@H]1C(F)F` (racemic) [Example 297], for which the IC50 worked out at 168 nM in test [1] (EGFR enzyme assay), 11.4 nM in test [2] (ErbB2 WT enzyme assay), 239 nM in test [3] (setting [6]) and 12.8 nM in test [4] (setting [7]).

Turning to `CCC(=O)N1CC([C@H](C)c2ccc3ncnc(Nc4ccc(Oc5ccn6ncnc6c5)c(C)c4F)c3n2)C1` (racemic) [Example 301], the IC50 in test [1] (EGFR enzyme assay) came to 2250 nM; in test [2] (ErbB2 WT enzyme assay), 94.8 nM; in test [3] (setting [6]) it was 2550 nM; in test [4] (setting [7]), 51.1 nM.

With `C=CC(=O)N1CCC(Oc2nc3c(Nc4ccc(Oc5ccn6ncnc6c5)c(C)c4F)ncnc3cc2OC)CC1` [Example 40, 1-(4-((4-((4-([1,2,4]triazolo[1,5-a]pyridin-7-yloxy)-2-fluoro-3-methylphenyl)amino)-7-methoxypyrido[3,2-d]pyrimidin-6-yl)oxy)piperidin-1-yl)prop-2-en-1-one], the IC50 in test [1] (EGFR enzyme) was determined as 300 nM; in test [2] (ErbB2 WT enzyme), 11.3 nM; in test [3] (setting [5]) it was 111 nM; in test [4] (ErbB2 YVMA phosphorylation), 7.8 nM.
